# In patent US6682892B2, “Method for treating herpes viruses” (priority 2000, dated 2004):
# Read-outs that look alike come from different tables or passages of the source.
# Legend:
# Assay type in all cases: cell-based
# [1] = test system: HSV-2 MS-M1 (V826A); experiment: Plaque reduction assay, 4-oxo-DHQ resistant HSV-2 MS-M1; settings: Table 5, mutant selected for 4-oxo-DHQ resistance; read-out: Plaque Reduction Assay - IC50 (μM) HSV-2 MS-M1
# Procedure: (§1) Antiviral activity of compounds against herpesviruses such as HSV-1, HSV-2, or HCMV can be measured using plaque reduction assays. 0.1 ml of media containing approximately 50 PFU of virus is added to each well of a 24-well cell culture dish containing a confluent monolayer of cells (Vero cells for HSV-1 and HSV-2, HFF cells for HCMV). Compounds are dissolved in 100% DMSO and diluted in 100% DMSO as 200× stocks of the desired final drug concentration. Typically 5-6 two-fold dilutions are prepared for each compound. Dilutions of compounds are then added to media containing 0.8% CMC resulting in a final 1× drug concentration. After the virus-infected cells have incubated for 1 h at 37° C., the virus innoculum is removed and 1 ml of media containing 0.8% CMC and the various concentrations of compound is added to each well of the dish. The dish is incubated at 37° C. for approximately 2-3 days (HSV-1 and HSV-2) or 6-9 days (HCMV) to allow sufficient growth of virus to form plaques in the cell monolayer. Plaques can be observed and counted microscopically or by staining the cells with 0.1% crystal violet in 20% ethanol. […] Antiviral activity of a compound is expressed as the concentration of compound predicted to reduce the number of plaques in a well by 50% (IC50). The IC50 values are calculated by plotting the per cent inhibition vs. concentration of compound using EXCEL software for linear regression.
# (§2) Vero cells are plated out at a density of 3.5×10^5 cells per well in a six well tissue culture plate. Cells are infected with HSV-1 KOS at a multiplicity of infection (moi) of 0.1 pfu/cell and 1 h post infection the cells are overlayed with 3 ml media containing 20 uM of a 4-oxo-DHQ. Cultures are incubated for 20 h at 37° C., freeze/thawed to release cell-associated virus, and 0.1 ml of culture is used to infect a new monolayer of Vero cells (one passage). Serial passage is repeated seven times in the presence of 20 uM drug. Virus isolates are then plaque purified three times prior to preparation of stocks. 4-oxo-DHQ resistant HSV-1 and HSV-2 may also be selected by the marker transfer method described below using wild-type HSV DNA and the corresponding mutant HSV polymerase gene.
# (§3) A panel of viruses consisting of four strains of HSV-1 (KOS, F, DJL, Patton) and three strains of HSV-2 (MS, 35D, 186) are tested in a plaque reduction assay against four different 4-oxo-DHQ compounds (#1, 2, 4, 5 as shown in FIG. 1), and one 4-oxo-DHTP compound (#3 as shown in FIG. 1) and against Acyclovir. The six drugs inhibited replication of the seven virus strains with IC50 values ranging from 2-10 μM (Table 1). In order to select for 4-oxo-DHQ resistant mutants, HSV-1 strains KOS, F, and DJL along with HSV-2 strains 186 and MS are serially passaged in the presence of 20 uM compound 1. Following the seventh passage, 4-oxo-DHQ resistant virus from each strain are plaque purified three times and high-titer stocks are made.
# [2] = test system: HSV-1 F; experiment: Plaque reduction assay, HSV-1 F; settings: Table 1, plaque reduction, Vero cells
# Procedure: as §1, §3
# [3] = test system: HSV-2 35D; experiment: Plaque reduction assay, HSV-2 35D; settings: Table 1, plaque reduction, Vero cells
# Procedure: as §1, §3
# [4] = test system: HSV-2 MS; experiment: Plaque reduction assay, HSV-2 MS
# Procedure: as §1, §3
# [5] = test system: HCMV AD169; experiment: Plaque reduction assay, HCMV AD169; settings: Table 5, wild type strain; read-out: Plaque Reduction Assay - IC50 (μM) HCMV AD169
# Procedure: as §1
# [6] = test system: HSV-1 KOS-M1 (V823A); experiment: Plaque reduction assay, 4-oxo-DHQ resistant HSV-1 KOS-M1; settings: Table 5, mutant selected for 4-oxo-DHQ resistance; read-out: Plaque Reduction Assay - IC50 (μM) HSV-1 KOS-M1
# Procedure: as §1, §2, §3
# [7] = test system: HSV-1 KOS; experiment: Plaque reduction assay, HSV-1 KOS
# Procedure: as §1, §3
# [8] = test system: HSV-2 186; experiment: Plaque reduction assay, HSV-2 186; settings: Table 1, plaque reduction, Vero cells
# Procedure: as §1, §3
# [9] = test system: HCMV AD169-M1 (V823A, V824L); experiment: Plaque reduction assay, 4-oxo-DHQ resistant HCMV AD169-M1; settings: Table 5, mutant selected for 4-oxo-DHQ resistance; read-out: Plaque Reduction Assay - IC50 (μM) HCMV AD169-M1
# Procedure: as §1
# A plasmid containing the wild-type HCMV polymerase gene is modified to contain the V823A or V823A and V824L mutations using a site-directed mutagenesis Kit (Stratagene Corp.) and following the manufactures's protocol. HFF cells are plated into T25 tissue culture flasks to achieve 80% confluency at the time of the transfection. Wild type HCMV AD 169 DNA and plasmid DNA containing the mutant HCMV polymerase gene are mixed at a ratio of 1:2 (2 ug of viral DNA to 4 ug of plasmid DNA). DNA's are transfected using superfect transfection reagent according to methods recommended by the manufacturer (Quiagen Inc.). Cells are harvested five days posttransfection, freeze-thawed to release virus and half of the sample is used to infect HFF cell monolayers. Cells are overlayed with media containing 20 uM 4-oxo-DHQ compound 2 (see FIG. 1). Serial passage is repeated seven times in the presence of 20 uM compound 2 and virus isolates are then plaque purified three times prior to preparation of viral stock.
# In order to isolate an HCMV resistant mutant marker rescue experiments are done. Plasmids containing the mutant polymerase genes are transfected into HFF cells along with wild type HCMV AD169 DNA. The resulting virus is then serially passaged in the presence of 20 uM compound 1 (see FIG. 1). A 4-oxo-DHQ resistant virus is isolated from marker rescue studies done with the HCMV polymerase gene containing mutations that result in the V823A, V824L amino acid changes, but not with the gene containing V823A change alone.
# [10] = test system: HSV-1 DJL; experiment: Plaque reduction assay, HSV-1 DJL; settings: Table 1, plaque reduction, Vero cells
# Procedure: as §1, §3
# [11] = test system: HSV-1 Patton; experiment: Plaque reduction assay, HSV-1 Patton; settings: Table 1, plaque reduction, Vero cells
# Procedure: as §1, §3
smiles,measurement,setting,value
Cn1cc(C(=O)NCc2ccc(Cl)cc2)c(=O)c2cc(CN3CCOCC3)sc21 [Compound 3],IC50,[1],> 50 µM
same,IC50,[2],2.2 µM
same,IC50,[3],5 µM
same,IC50,"[4]; Table 1, plaque reduction, Vero cells, read-out: IC50 (uM), HSV-2 MS",2.8 µM
same,IC50,"[4]; Table 5, wild type strain, read-out: Plaque Reduction Assay - IC50 (μM) HSV-2 MS",0.8 µM
same,IC50,[5],1.5 µM
same,IC50,[6],> 50 µM
same,IC50,"[7]; Table 1, plaque reduction, Vero cells, read-out: IC50 (uM), HSV-1 KOS",3.2 µM
same,IC50,"[7]; Table 5, wild type strain, read-out: Plaque Reduction Assay - IC50 (μM) HSV-1 KOS",4 µM
same,IC50,[8],3.2 µM
same,IC50,[9],6.2 µM
same,IC50,[10],1.8 µM
same,IC50,[11],7.7 µM
